pIC50: −log10 of the molar value. Active and inactive are the calls of the source. No cut-off for these calls is given here.
Key:
[1] = system: Trypanosoma brucei rhodesiense; assay: Antiparasitic activity against trypomastigote stage of Trypanosoma brucei rhodesiense STIB 900 assessed as parasite growth inhibition after 72 hrs by Alamar blue assay; assay type: functional, organism-based; settings: STIB 900, 72 h
Trypanosoma cruzi [2] = assay: Antiparasitic activity against amastigote stage of Trypanosoma cruzi Tulahuen C4 infected in rat L6 cells assessed as parasite growth inhibition after 96 hrs by beta-galactosidase reporter gene assay; assay type: functional, organism-based; settings: Tulahuen C4, L6, 96 h
L6 = assay: Cytotoxicity against rat L6 cells assessed as growth inhibition after 72 hrs by Alamar blue assay; assay type: cell-based; settings: L6, 72 h
[3] = Selectivity index, ratio of IC50 for rat L6 cells to IC50 for amastigote stage of Trypanosoma cruzi Tulahuen C4 infected in rat L6 cells
[4] = Selectivity index, ratio of IC50 for rat L6 cells to IC50 for axenic amastigote stage of Leishmania donovani MHOM-ET-67/L82
Trypanosoma cruzi [5] = assay: Potency index, ratio of benznidazole IC50 to compound IC50 for amastigote stage of Trypanosoma cruzi Tulahuen C4 infected in rat L6 cells; assay type: functional
[6] = Selectivity index, ratio of IC50 for rat L6 cells to IC50 for trypomastigote stage of Trypanosoma brucei rhodesiense STIB 900
Leishmania donovani [7] = assay: Antiparasitic activity against axenic amastigote stage of Leishmania donovani MHOM-ET-67/L82 assessed as parasite growth inhibition after 72 hrs by Alamar blue assay; assay type: functional, organism-based; settings: MHOM-ET-67/L82, 72 h
[8] = Half life in human microsomes at 1 uM in absence of NADPH
[9] = Half life in human microsomes at 1 uM in presence of NADPH
Leishmania donovani [10] = assay: Potency index, ratio of miltefosine IC50 to compound IC50 for axenic amastigote stage of Leishmania donovani MHOM-ET-67/L82; assay type: functional
Leishmania donovani [11] = assay: Antileishmanial activity against amastigote stage of Leishmania donovani infected in mouse peritoneal macrophages assessed as reduction in parasite burden after 96 hrs by Giemsa staining method; assay type: functional, organism-based
[12] = Cytotoxicity against mouse peritoneal macrophages; assay type: cell-based; settings: Peritoneal macrophage cell
[13] = Prodrug conversion assessed as Trypanosoma brucei recombinant His-tagged type-1 nitroreductase-mediated drug metabolism by measuring NADH oxidation after 5 mins by spectrophotometric analysis; assay type: ADME; settings: isolated protein
[14] = system: Trypanosoma brucei brucei; assay: Antiparasitic activity against blood stream form of Trypanosoma brucei brucei overexpressing type-1 nitroreductase after 3 days by Alamar blue assay in presence of tetracycline; assay type: functional, organism-based; settings: 72 h
[15] = Prodrug conversion assessed as Trypanosoma cruzi recombinant type-1 nitroreductase-mediated drug metabolism by measuring NADH oxidation after 5 mins by spectrophotometric analysis; assay type: ADME; settings: isolated protein
[16] = system: Trypanosoma brucei brucei; assay: Ratio of IC50 for blood stream form of Trypanosoma brucei brucei overexpressing type-1 nitroreductase in absence of tetracycline to IC50 for blood stream form of Trypanosoma brucei brucei overexpressing type-1 nitroreductase in presence of tetracycline; assay type: functional
[17] = system: Trypanosoma brucei brucei; assay: Antiparasitic activity against wild type blood stream form of Trypanosoma brucei brucei after 3 days by Alamar blue assay; assay type: functional, organism-based; settings: 72 h
[18] = system: Trypanosoma brucei brucei; assay: Antiparasitic activity against blood stream form of Trypanosoma brucei brucei overexpressing type-1 nitroreductase after 3 days by Alamar blue assay in absence of tetracycline; assay type: functional, organism-based; settings: 72 h
Trypanosoma cruzi [19] = assay: Antichagasic activity against trypomastigote stage of Trypanosoma cruzi Brazil infected in Balb/c mouse assessed as reduction in parasite load at 13 mg/kg/day, ip measured after 5 days by luciferase reporter gene assay; assay type: functional, organism-based
Mus musculus = assay: Toxicity in Balb/c mouse at 13 mg/kg/day, ip; assay type: organism-based; settings: in vivo
[20] = Efflux ratio of apparent permeability across basolateral to apical side over apical to basolateral side in human Caco2 cells after 2 hrs; settings: Caco-2

Row | SMILES | pIC50 [1] | pIC50 (Trypanosoma cruzi [2]) | pIC50 (L6) | selectivity ratio [3] | selectivity ratio [4] | Ratio IC50 (Trypanosoma cruzi [5]) | selectivity ratio [6] | pIC50 (Leishmania donovani [7]) | Ratio IC50 (Leishmania donovani [10]) | pIC50 (Leishmania donovani [11]) | pIC50 [12] | Drug metabolism [13] | pIC50 [14] | Drug metabolism [15] | Ratio IC50 [16] | pIC50 [18] | other results
1 | O=C(Cn1cnc([N+](=O)[O-])n1)Nc1cccc(OCc2ccccc2)c1 | 5.31 | 7.55 | 4.17 | 2420 | 20 | 17 | 14 | 5.47 | – | – | – | – | – | – | – | – | –
2 | O=C(Cn1cnc([N+](=O)[O-])n1)Nc1cccc(-c2ccccc2)c1 | – | – | 4.35 | – | – | – | – | – | – | – | – | – | – | – | – | – | half-life at 1 µM [8]: 108 min; half-life at 1 µM [9]: 63.6 min
3 | O=C(Cn1cnc([N+](=O)[O-])n1)Nc1ccc(Cc2ccccc2)cc1 | 5.68 | 7.17 | 4.44 | 528 | 31 | 34 | 17 | 5.92 | 0.12 | < 4.52 | < 4.05 | – | – | – | – | – | –
4 | O=C(Cn1cnc([N+](=O)[O-])n1)Nc1ccc(Oc2ccccc2)cc1 | 5.57 | 7.19 | 4.04 | 1420 | 339 | 31 | 34 | 6.57 | 0.6 | < 4.52 | 4.05 | 2931 nmol/min/mg | 5.86 | 815 nmol/min/mg | 1.7 | 5.63 | pIC50 [17]: 5.87
5 | O=C(Cn1ccnc1[N+](=O)[O-])Nc1ccc(Oc2ccc(Cl)cc2)cc1 | 5.59 | 5.59 | 3.90 | 49 | 937 | 0.78 | 50 | 6.85 | 1.2 | 4.82 | < 4.09 | 3337 nmol/min/mg | 5.77 | 817 nmol/min/mg | 3.8 | 5.19 | pIC50 [17]: 5.33
6 | O=C(Cn1ccnc1[N+](=O)[O-])Nc1ccc(Oc2ccc(F)cc2)cc1 | 4.89 | 5.48 | 3.91 | 37 | 418 | 0.61 | 9 | 6.54 | 0.55 | 4.85 | < 4.08 | – | – | – | – | – | –
7 | O=C(Cn1cnc([N+](=O)[O-])n1)NC1CCN(Cc2ccccc2)CC1 | 4.92 | 5.10 | 3.94 | 14 | < 1 | 0.28 | 9.6 | 3.88 | – | – | – | – | – | – | – | – | –
8 | O=C(Cn1cnc([N+](=O)[O-])n1)Nc1ccc(Oc2ccc(F)cc2)cc1 | 5.70 | 7.44 | 4.15 | 1950 | 384 | 56 | 35 | 6.74 | 0.89 | < 4.55 | 4.08 | 2702 nmol/min/mg | 6.11 | 516 nmol/min/mg | 4.8 | 5.44 | Activity (Trypanosoma cruzi [19]): Active; pIC50 [17]: 5.50; Activity (Mus musculus): Non-toxic
9 | CC(C)NCC(O)COc1cccc2ccccc12 (centres undefined) [PROPRANOLOL] | – | – | – | – | – | – | – | – | – | – | – | – | – | – | – | – | efflux ratio at 2 h [20]: 3.1
10 | O=C(Cn1cncn1)Nc1ccc(Oc2ccc(Cl)cc2)cc1 | 4.59 | 4.74 | 3.86 | 7.5 | 5 | – | – | 4.54 | – | – | – | – | – | – | – | – | –
11 | CC1CS(=O)(=O)CCN1/N=C/c1ccc([N+](=O)[O-])o1 (centres undefined) [NIFURTIMOX] | – | – | – | – | – | – | – | – | – | – | – | – | 6.37 | – | 10.3 | 5.36 | –
12 | CC(C)NCC(O)COc1ccc(CC(N)=O)cc1 (centres undefined) [ATENOLOL] | – | – | – | – | – | – | – | – | – | – | – | – | – | – | – | – | efflux ratio at 2 h [20]: 3.7
13 | COc1ccc2c(c1)[C@]13CCCC[C@@H]1[C@H](C2)N(C)CC3 [DEXTROMETHORPHAN] | – | – | – | – | – | – | – | – | – | – | – | – | – | – | – | – | half-life at 1 µM [8]: 154 min; half-life at 1 µM [9]: 92.5 min
14 | O=C(Cn1cnc([N+](=O)[O-])n1)Nc1ccc(Oc2ccc(Cl)cc2)cc1 | 5.89 | 8.10 | 4.54 | 3620 | 853 | 254 | 22 | 7.47 | 4.8 | < 4.57 | 4.10 | 2699 nmol/min/mg | 5.93 | 628 nmol/min/mg | 5 | 5.23 | Activity (Trypanosoma cruzi [19]): Active; pIC50 [17]: 5.29; Activity (Mus musculus): Non-toxic
15 | CCCCCCCCCCCCCCCCOP(=O)([O-])OCC[N+](C)(C)C [MILTEFOSINE] | – | – | – | – | – | – | – | – | – | 5.16 | – | – | – | – | – | – | –
16 | O=C(Cn1ccnc1[N+](=O)[O-])NCc1ccccc1 [BENZNIDAZOLE] | – | – | – | – | – | – | – | – | – | – | – | 1540 nmol/min/mg | – | 680 nmol/min/mg | – | – | Activity (Trypanosoma cruzi [19]): Active; Activity (Mus musculus): Non-toxic
17 | O=C(Cn1cnc([N+](=O)[O-])n1)Nc1ccc(-c2ccc(Cl)cc2)cc1 | – | – | – | 2800 | 738 | 45 | 140 | 6.77 | 0.95 | < 4.08 | < 4.08 | 2492 nmol/min/mg | 6.07 | 585 nmol/min/mg | 0.8 | 6.16 | Activity (Trypanosoma cruzi [19]): Active; pIC50 [17]: 6.16; Activity (Mus musculus): Non-toxic
18 | O=C(Cn1ccnc1[N+](=O)[O-])Nc1ccc(Oc2ccccc2)cc1 | 4.82 | 5.38 | 4.21 | 15 | 79 | 0.48 | – | 6.10 | 0.21 | 4.80 | < 4.05 | – | – | – | – | – | –
19 | O=C(Cn1cnc([N+](=O)[O-])n1)Nc1nccc(-c2ccccc2)n1 | 3.86 | 5.60 | 3.77 | 66 | – | 0.8 | 1.2 | < 3.51 | – | – | – | – | – | – | – | – | –
